Organism: Rattus norvegicus
Test: DrugMatrix - Regimen: Daily Repeat
Type: toxicity, organism-based, Sprague-Dawley
Parameters: regimen Daily Repeat, gender Male, age 6-8 weeks
Conditions: in vivo, po, […], route oral GAVAGE, dose 1.7 mg/Kg, dose level Low; for ABSOLUTE BASOPHIL / ABSOLUTE EOSINOPHIL / ABSOLUTE LYMPHOCYTE / ABSOLUTE MONOCYTE / ABSOLUTE SEGMENTED NEUTROPHIL / BASOPHIL / EOSINOPHIL / ERYTHROCYTE COUNT / HEMATOCRIT / HEMOGLOBIN / LEUKOCYTE COUNT / LYMPHOCYTE / MEAN CORPUSCULAR HEMOGLOBIN / MEAN CORPUSCULAR HEMOGLOBIN CONCENTRATION / MEAN CORPUSCULAR VOLUME / MONOCYTE / NEUTROPHIL / NUCLEATED RED BLOOD CELLS / PLATELET COUNT: tissue Blood; for ALANINE AMINOTRANSFERASE / ALBUMIN / ALKALINE PHOSPHATASE / ASPARTATE AMINOTRANSFERASE / BLOOD UREA NITROGEN / CARBON DIOXIDE / CHLORIDE / CHOLESTEROL / CREATINE PHOSPHOKINASE / CREATININE / GLUCOSE / LACTATE DEHYDROGENASE / LIPASE / PHOSPHORUS / POTASSIUM / SODIUM / TOTAL BILIRUBIN / TOTAL PROTEIN / URIC ACID: tissue Plasma

Structure (SMILES): C#C[C@]1(OC(C)=O)CC[C@H]2[C@@H]3CCC4=CC(=O)CC[C@@H]4[C@H]3CC[C@@]21C [NORETHINDRONE ACETATE]
- ABSOLUTE BASOPHIL (72 h, time 3 day): 0 CELLS/uL
- ABSOLUTE EOSINOPHIL (72 h, time 3 day): 0 CELLS/uL
- ABSOLUTE LYMPHOCYTE (72 h, time 3 day): 14146.67 CELLS/uL
- ABSOLUTE MONOCYTE (72 h, time 3 day): 167 CELLS/uL
- ABSOLUTE SEGMENTED NEUTROPHIL (72 h, time 3 day): 1486.33 CELLS/uL
- BASOPHIL (72 h, time 3 day): 0%
- EOSINOPHIL (72 h, time 3 day): 0%
- ERYTHROCYTE COUNT (72 h, time 3 day): 5.62 x10E6/uL
- HEMATOCRIT (72 h, time 3 day): 33.97%
- HEMOGLOBIN (72 h, time 3 day): 13.3 G/DL
- LEUKOCYTE COUNT (72 h, time 3 day): 15.8 x10E3/uL
- LYMPHOCYTE (72 h, time 3 day): 89.33%
- MEAN CORPUSCULAR HEMOGLOBIN (72 h, time 3 day): 23.7 pg
- MEAN CORPUSCULAR HEMOGLOBIN CONCENTRATION (72 h, time 3 day): 39.17 G/DL
- MEAN CORPUSCULAR VOLUME (72 h, time 3 day): 60.5 fL
- MONOCYTE (72 h, time 3 day): 1%
- NEUTROPHIL (72 h, time 3 day): 9.67%
- NUCLEATED RED BLOOD CELLS (72 h, time 3 day): 0 /100WBC
- PLATELET COUNT (72 h, time 3 day): 1255.67 x10E3/uL
- ALANINE AMINOTRANSFERASE (72 h, time 3 day): 61.67 u/L
- ALBUMIN (72 h, time 3 day): 4.07 G/DL
- ALKALINE PHOSPHATASE (72 h, time 3 day): 473.33 u/L
- ASPARTATE AMINOTRANSFERASE (72 h, time 3 day): 85 u/L
- BLOOD UREA NITROGEN (72 h, time 3 day): 14.33 mg/dL
- CARBON DIOXIDE (72 h, time 3 day): 26.67 mmol/L
- CHLORIDE (72 h, time 3 day): 99.67 MEQ/L
- CHOLESTEROL (72 h, time 3 day): 62.33 mg/dL
- CREATINE PHOSPHOKINASE (72 h, time 3 day): 351 u/L
- CREATININE (72 h, time 3 day): 0.17 mg/dL
- GLUCOSE (72 h, time 3 day): 158.33 mg/dL
- LACTATE DEHYDROGENASE (72 h, time 3 day): 371.33 u/L
- LIPASE (72 h, time 3 day): 10.33 u/L
- PHOSPHORUS (72 h, time 3 day): 12.87 mg/dL
- POTASSIUM (72 h, time 3 day): 6.54 MEQ/L
- SODIUM (72 h, time 3 day): 143.43 MEQ/L
- TOTAL BILIRUBIN (72 h, time 3 day): 0.17 mg/dL
- TOTAL PROTEIN (72 h, time 3 day): 5.73 G/DL
- URIC ACID (72 h, time 3 day): 1.37 mg/dL
- ABSOLUTE BASOPHIL (120 h, time 5 day): 0 CELLS/uL
- ABSOLUTE EOSINOPHIL (120 h, time 5 day): 62 CELLS/uL
- ABSOLUTE LYMPHOCYTE (120 h, time 5 day): 13760.33 CELLS/uL
- ABSOLUTE MONOCYTE (120 h, time 5 day): 100.67 CELLS/uL
- ABSOLUTE SEGMENTED NEUTROPHIL (120 h, time 5 day): 1110.33 CELLS/uL
- BASOPHIL (120 h, time 5 day): 0%
- EOSINOPHIL (120 h, time 5 day): 0.33%
- ERYTHROCYTE COUNT (120 h, time 5 day): 5.76 x10E6/uL
- HEMATOCRIT (120 h, time 5 day): 36.33%
- HEMOGLOBIN (120 h, time 5 day): 14.4 G/DL
- LEUKOCYTE COUNT (120 h, time 5 day): 15.03 x10E3/uL
- LYMPHOCYTE (120 h, time 5 day): 91.67%
- MEAN CORPUSCULAR HEMOGLOBIN (120 h, time 5 day): 25.07 pg
- MEAN CORPUSCULAR HEMOGLOBIN CONCENTRATION (120 h, time 5 day): 39.67 G/DL
- MEAN CORPUSCULAR VOLUME (120 h, time 5 day): 63.17 fL
- MONOCYTE (120 h, time 5 day): 0.67%
- NEUTROPHIL (120 h, time 5 day): 7.33%
- NUCLEATED RED BLOOD CELLS (120 h, time 5 day): 0 /100WBC
- PLATELET COUNT (120 h, time 5 day): 1087.33 x10E3/uL
- ALANINE AMINOTRANSFERASE (120 h, time 5 day): 65.33 u/L
- ALBUMIN (120 h, time 5 day): 4.13 G/DL
- ALKALINE PHOSPHATASE (120 h, time 5 day): 463.33 u/L
- ASPARTATE AMINOTRANSFERASE (120 h, time 5 day): 99 u/L
- BLOOD UREA NITROGEN (120 h, time 5 day): 16 mg/dL
- CARBON DIOXIDE (120 h, time 5 day): 28.67 mmol/L
- CHLORIDE (120 h, time 5 day): 98.67 MEQ/L
- CHOLESTEROL (120 h, time 5 day): 59.33 mg/dL
- CREATINE PHOSPHOKINASE (120 h, time 5 day): 362.33 u/L
- CREATININE (120 h, time 5 day): 0.2 mg/dL
- GLUCOSE (120 h, time 5 day): 142 mg/dL
- LACTATE DEHYDROGENASE (120 h, time 5 day): 548.33 u/L
- LIPASE (120 h, time 5 day): 10.33 u/L
- PHOSPHORUS (120 h, time 5 day): 12.73 mg/dL
- POTASSIUM (120 h, time 5 day): 6.67 MEQ/L
- SODIUM (120 h, time 5 day): 145.33 MEQ/L
- TOTAL BILIRUBIN (120 h, time 5 day): 0.23 mg/dL
- TOTAL PROTEIN (120 h, time 5 day): 5.93 G/DL
- URIC ACID (120 h, time 5 day): 1.63 mg/dL

Source: ChEMBL document CHEMBL3885881, “DrugMatrix”
